What was measured:
[1] = target: T1, human muscarinic M1 receptor (Homo sapiens, UniProt P11229); assay: Alphascreen Surefire phospho-ERK1/2 assay, M1; type: cell-based; conditions: for EC50: CHO cells, agonist 5 min, read-out: pEC50 M1 (converted)
T1 construct: expressed in transfected cells
T1 sequence (P11229 1-460): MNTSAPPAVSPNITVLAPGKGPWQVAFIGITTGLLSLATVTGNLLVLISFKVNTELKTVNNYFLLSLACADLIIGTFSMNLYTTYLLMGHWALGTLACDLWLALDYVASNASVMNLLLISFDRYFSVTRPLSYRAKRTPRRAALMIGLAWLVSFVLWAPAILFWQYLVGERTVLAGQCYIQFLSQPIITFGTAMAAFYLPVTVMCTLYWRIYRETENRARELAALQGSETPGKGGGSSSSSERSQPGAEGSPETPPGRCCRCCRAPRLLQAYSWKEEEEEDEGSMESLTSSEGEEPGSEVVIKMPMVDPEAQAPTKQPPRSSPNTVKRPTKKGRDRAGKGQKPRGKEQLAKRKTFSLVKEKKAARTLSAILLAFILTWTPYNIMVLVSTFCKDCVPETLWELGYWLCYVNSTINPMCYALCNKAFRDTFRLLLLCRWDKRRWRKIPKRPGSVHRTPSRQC
Description: (§1) ERK1/2 phosphorylation is a downstream consequence of both Gq/11 and Gi/o protein coupled receptor activation, making it highly suitable for the assessment of M1, M3 (Gq/11 coupled) and M2, M4 receptors (Gi/o coupled), rather than using different assay formats for different receptor subtypes. CHO cells stably expressing the human muscarinic M1, M2, M3 or M4 receptor were plated (25K/well) onto 96-well tissue culture plates in MEM-alpha+10% dialysed FBS. Once adhered, cells were serum-starved overnight. Agonist stimulation was performed by the addition of 5 μL agonist to the cells for 5 min (37° C.). Media was removed and 50 μL of lysis buffer added.

[2] = target: T2, human muscarinic M2 receptor (Homo sapiens, UniProt P08172); assay: Alphascreen Surefire phospho-ERK1/2 assay, M2; type: cell-based; conditions: CHO cells, agonist 5 min
T2 construct: expressed in transfected cells
T2 sequence (P08172 1-466): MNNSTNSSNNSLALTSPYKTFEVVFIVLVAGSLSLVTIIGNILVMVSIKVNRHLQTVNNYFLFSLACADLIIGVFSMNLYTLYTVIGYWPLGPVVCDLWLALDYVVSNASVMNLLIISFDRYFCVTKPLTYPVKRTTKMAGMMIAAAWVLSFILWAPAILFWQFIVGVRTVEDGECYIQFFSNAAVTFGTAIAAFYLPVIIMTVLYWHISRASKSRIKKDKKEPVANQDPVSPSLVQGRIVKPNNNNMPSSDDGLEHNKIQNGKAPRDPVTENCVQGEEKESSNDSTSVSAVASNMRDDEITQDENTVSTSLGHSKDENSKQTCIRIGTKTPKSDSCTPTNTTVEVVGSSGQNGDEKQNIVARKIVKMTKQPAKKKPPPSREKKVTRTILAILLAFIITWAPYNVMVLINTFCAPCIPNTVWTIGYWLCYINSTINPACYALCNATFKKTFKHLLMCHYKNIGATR
Description: as §1

[3] = target: T3, human muscarinic M3 receptor (Homo sapiens, UniProt P20309); assay: Alphascreen Surefire phospho-ERK1/2 assay, M3; type: cell-based; conditions: CHO cells, agonist 5 min; read-out: pEC50 M3 (converted)
T3 construct: expressed in transfected cells
T3 sequence (P20309 whole entry): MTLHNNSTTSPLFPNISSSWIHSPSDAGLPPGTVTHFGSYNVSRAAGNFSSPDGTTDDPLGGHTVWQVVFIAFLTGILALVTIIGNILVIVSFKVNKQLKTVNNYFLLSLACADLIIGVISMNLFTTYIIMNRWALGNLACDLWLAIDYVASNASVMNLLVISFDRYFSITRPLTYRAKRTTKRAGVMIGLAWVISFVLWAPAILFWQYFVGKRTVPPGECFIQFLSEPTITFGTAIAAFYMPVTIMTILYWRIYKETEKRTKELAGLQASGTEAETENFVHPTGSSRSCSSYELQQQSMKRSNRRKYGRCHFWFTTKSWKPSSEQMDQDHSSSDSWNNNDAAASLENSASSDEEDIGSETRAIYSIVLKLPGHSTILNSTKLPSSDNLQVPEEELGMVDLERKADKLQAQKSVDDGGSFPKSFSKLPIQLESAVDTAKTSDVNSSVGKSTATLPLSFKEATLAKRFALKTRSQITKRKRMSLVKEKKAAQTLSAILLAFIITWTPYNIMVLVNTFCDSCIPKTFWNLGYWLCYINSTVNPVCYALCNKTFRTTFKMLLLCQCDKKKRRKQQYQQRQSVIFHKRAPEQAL
Description: as §1

[4] = target: T4, human muscarinic M4 receptor (Homo sapiens, UniProt P08173); assay: Alphascreen Surefire phospho-ERK1/2 assay, M4; type: cell-based; conditions: CHO cells, agonist 5 min; read-out: pEC50 M4 (converted)
T4 construct: expressed in transfected cells
T4 sequence (P08173 1-479): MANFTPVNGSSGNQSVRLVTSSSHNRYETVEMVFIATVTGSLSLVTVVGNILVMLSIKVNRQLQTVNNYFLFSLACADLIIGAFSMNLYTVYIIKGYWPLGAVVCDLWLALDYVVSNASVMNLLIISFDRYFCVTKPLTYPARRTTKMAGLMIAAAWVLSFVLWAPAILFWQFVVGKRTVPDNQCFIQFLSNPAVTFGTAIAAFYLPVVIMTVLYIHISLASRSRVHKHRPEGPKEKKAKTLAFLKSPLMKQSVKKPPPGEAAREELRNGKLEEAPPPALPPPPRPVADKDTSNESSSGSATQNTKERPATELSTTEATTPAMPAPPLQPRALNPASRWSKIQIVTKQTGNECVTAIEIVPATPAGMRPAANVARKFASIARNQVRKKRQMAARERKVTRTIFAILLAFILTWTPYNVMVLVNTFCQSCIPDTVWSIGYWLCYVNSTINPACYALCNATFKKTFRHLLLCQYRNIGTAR
Description: as §1

[5] = system: scopolamine-induced amnesia; assay: Passive avoidance task; type: in vivo; conditions: 3, 10, 30 mg/kg po
Description: Studies were carried out as described previously by Foley et al., (2004) Neuropsychopharmacology. In the passive avoidance task scopolamine administration (1 mg/kg, i.p.) at 6 hours following training rendered animals amnesic of the paradigm. A dose range of 3, 10, and 30 mg/kg (po) free base, administered 90 minutes prior to the training period via oral gavage, was examined.

[6] = system: patients with mild-to-moderate AD; conditions: human, in vivo; cited from earlier work

SMILES	EC50 [1]	Emax ([1]; CHO, read-out: % Emax cf. ACh, M1, CHO cells, agonist 5 min)	EC50 ([2]; read-out: pEC50 M2 (converted))	Emax ([2]; read-out: % Emax cf. ACh, M2)	EC50 [3]	EC50 [4]	effect on scopolamine-induced amnesia [5]	incidence of cholinergic adverse events [6]
CCOC(=O)N1C2CCC1CC(N1CCC3(CC1)CNC(=O)C3)C2 (single isomer, unassigned) [Example 2-2 Isomer 1, ethyl 3-(3-oxo-2,8-diazaspiro[4.5]dec-8-yl)-8-azabicyclo[3.2.1]octane-8-carboxylate]	79.4 nM	99%	> 20000 nM	0%	> 20000 nM	200 nM	reverse scopolamine-induced amnesia of the paradigm in a dose-dependent manner	
CCOC(=O)N1C2CCC1CC(N1CCC3(CC1)CNC(=O)C3)C2 (single isomer, unassigned) [Example 2-2 Isomer 2, ethyl 3-(3-oxo-2,8-diazaspiro[4.5]dec-8-yl)-8-azabicyclo[3.2.1]octane-8-carboxylate]	12.6 nM					25.1 nM		
Cc1ccc(Cc2cc3c(=O)n([C@H]4CCCC[C@@H]4O)cnc3c3ccccc23)cn1 [MK-7622]								21%

Reference: patent US20240165097A1, “PHARMACEUTICAL COMPOSITION FOR THE TREATMENT OF ALZHEIMER'S DISEASE OR DEMENTIA” (Heptares Therapeutics Limited, priority 2021, published 2024)
